Source: publication PMC8418037, “Immunomodulatory effect of standardized C. asiatica extract on a promotion of regulatory T cells in rats” (BMC Complementary Medicine and Therapies, 2021)

How the values were obtained:
[1] = rat, in vivo
Description: Rats, weighing more than 400 g, were put in metabolic cages and fasted overnight with free access to water before experiments. […] The intravenous preparations were freshly dissolved in 20% DMSO/NSS for injection. The oral preparations were freshly prepared by suspending the test compound in 0.5% CMC. To reduce pain and injury during drug administration and blood collection, rats were anesthetized with 5% isoflurane by chamber induction. Serial blood samples (300 μL) were collected at 0, 5, 15, and 30 min, and at 1, 2, 4, 8, and 24 h after dosing. Blood samples were centrifuged at 5000 g for 10 min, and plasma was collected and stored at − 20 °C until analysis. Determination of aspartate transaminase (AST), alanine transaminase (ALT), and creatinine levels were performed at pre-dosing, and at 0 h and 24 h after dosing. Creatinine level was determined by enzymatic Roche Cobas 6000 analyzer. In this enzymatic method creatinine is converted to creatine under the activity of creatininase. Creatine is then acted upon by creatinase to form sarcosine and urea. Sarcosine oxidase converts sarcosine to glycine and hydrogen peroxide, and the hydrogen peroxide reacts with chromophore in the presence of peroxidase to produce a color product that is measured at 546 nm (secondary wavelength = 700 nm). This is an endpoint reaction that agrees well with recognized HPLC methods, and it has the advantage over Jaffe picric acid-based methods that are susceptible to interferences from non-creatinine chromogens. For tissue collection, the rats was euthanized with isoflurane after oral dosing the test compound at 100 mg/kg for 7 days. After the dead was confirmed, spleen and blood were immediately collected, washed with normal saline solution, and send to immunology laboratory for further experiments. The control group received oral gavage of 0.5% CMC as vehicle control. All animal procedures were complied with the ethical principles and guidelines for the use of animals (National Research Council of Thailand, 2015).
All pharmacokinetic parameters were computed by non-compartmental analysis using PK Solution 2.0 software (Summit Research Service, USA). […] The absolute oral bioavailability was calculated as (AUCp.o. ÷ dose p.o.) ÷ (AUCi.v. ÷ dose i.v.). Pharmacokinetic data are presented as mean ± standard deviation. Blood chemical parameters were analyzed by Mann–Whitney U-test to compare the significance of differences between pre-dosing and 24 h post-dosing, with a p-value of less than 0.05. All statistical analyses were calculated using SPSS version 16 (SPSS, Inc., USA). […] The data were analyzed with an unpaired Student’s t-test. A p-value of < 0.05 was considered statistically significant.

[2] = system: multidrug-resistant protein 2; set-up: method as in PMID 24091240; settings: affecting the level of absorbed compound; cited from earlier work
[3] = system: P-glycoprotein; set-up: method as in PMID 24091240; settings: affecting the level of absorbed compound; cited from earlier work

**Q.** Which “ALT, Post-dose (24 h)” value [1] does the source give for `C[C@H]1[C@H](C)CC[C@]2(C(=O)O[C@@H]3O[C@H](CO[C@@H]4O[C@H](CO)[C@@H](O[C@@H]5O[C@@H](C)[C@H](O)[C@@H](O)[C@H]5O)[C@H](O)[C@H]4O)[C@@H](O)[C@H](O)[C@H]3O)CC[C@]3(C)C(=CC[C@@H]4[C@@]5(C)C[C@@H](O)[C@H](O)[C@@](C)(CO)[C@@H]5[C@H](O)C[C@]43C)[C@H]12` [Madecassoside, madecassoside] here?
**A.** 24.00 ± 4.85 U/L

**Q.** And the “ALT, Pre-dose (0 h)” value [1]?
**A.** 23.80 ± 2.59 U/L

**Q.** And the “AST, Post-dose (24 h)” value [1]?
**A.** 63.20 ± 16.81 U/L

**Q.** And the “AST, Pre-dose (0 h)” value [1]?
**A.** 46.20 ± 4.87 U/L

**Q.** And the “Creatinine, Post-dose (24 h)” value [1]?
**A.** 0.67 ± 0.05 mg/dL

**Q.** And the “Creatinine, Pre-dose (0 h)” value [1]?
**A.** 0.64 ± 0.04 mg/dL

**Q.** What about the “Physical appearance, Post-dose (24 h)” value [1] of the same compound?
**A.** Normal

**Q.** And the “Physical appearance, Pre-dose (0 h)” value [1]?
**A.** Normal

**Q.** And the “Substrate for multidrug-resistant protein 2” value [2]?
**A.** substrate

**Q.** What about the “Substrate for P-glycoprotein” value [3] of the same compound?
**A.** substrate
